Results from patent publication US12590100B2, “Tetrahydro-spiroindoline-pyrrolopyrrole-triones inhibitors of the NRF2-β-TrCP interaction for use in the treatment of fatty liver disease” (Universidad Autonoma De Madrid, priority 2021, dated 2026).

Columns and labels:
[1] = tested on: NRF2; experiment: NRF2 and HO-1 protein levels in mouse tissues after IP treatment; format: in vivo; details: C57BL/6 mice, single IP 50 mg/kg, 120 min
Experimental: FIG. 9. PHAR activates NRF2 and HO-1 in liver. A), UV and MS spectrum derived from the HPLC-MS analysis of PHAR dissolved in methanol for the identification of peaks associated with the compound. A blue rectangle surrounds the mass associated with PHAR. (B-D), the mice were treated with the vehicle (Tween-80+PBS, 1:13), 50 mg/kg of PHAR, or 50 mg/kg of SFN (saline) as a positive control by means of intraperitoneal (IP) injection for 2 hours. B), HPLC-MS UV and MS spectra derived from representative liver samples of both experimental groups used for determining PHAR levels in the liver 120 min after a single IP injection of 50 mg/kg. A blue rectangle surrounds the mass associated with PHAR. C), representative immunoblots showing NRF2, HO1, and LAMINB protein levels as the liver extract loading control. D), densitometric analysis of NRF2 protein levels of the representative immunoblots shown in (C), expressed as a ratio of NRF2/LAMINB. Statistical analysis was performed with one-way ANOVA followed by the Bonferroni test to compare inter-group differences. ***p<0.001 vs. vehicle. E) and F), the mice were treated daily with vehicle (Tween-80+PBS, 1:13) or 50 mg/kg of PHAR by means of intraperitoneal injection for 5 days. E), representative immunoblots showing NRF2, HO1, and LAMINB protein levels as loading control in brain, liver and kidney. F), densitometric analysis of NRF2 and HO1 protein levels in the liver tissue of the representative immunoblots shown in (E), expressed as a ratio of NRF2/LAMINB or HO1/LAMINB levels. Statistical analysis was performed with a Student t test to compare inter-group differences. **p<0.01 vs. vehicle.
Once the mechanism of action of PHAR was deciphered, the capacity thereof to induce NRF2 levels in a murine model was evaluated. C57BL/6 mice received a single intraperitoneal (IP) injection of 50 mg/kg PHAR (Tween-80+PBS, 1:13) or 50 mg/kg of SFN (saline) as a positive control. The UV spectrum derived from the HPLC-MS study of the PHAR compound dissolved in methanol alone helped the identification of the peak associated with the compound for subsequent identification in the tissue analysis. […] Taking this as a reference point, liver tissue analysis was performed to check for the presence of PHAR therein.
For this reason, C57BL/6 mice were treated daily by IP route for 5 days with 50 mg/kg of vehicle or 50 mg/kg of PHAR.

[2] = tested on: NRF2; experiment: NRF2 and HO-1 protein levels in MEFs (immunoblot); format: cell-based, mouse; details: SFN 10 μM
Experimental: (§1) FIG. 4. […] MEFs in serum-depleted conditions were subjected to (A-C) 1 μM, 3 μM, or 10 μM of PHAR and 10 μM of SFN as a positive control for 16 h; or (D-F) 10 μM of PHAR for the indicated times. In both experiments, 0.1% DMSO was used as a vehicle. A), representative immunoblots of NRF2, HO1, KEAP1, LAMINB, and GAPDH as loading controls. B) and C), densitometric analysis of NRF2 and HO1 protein levels of the representative immunoblots depicted in (A), expressed as a ratio of NRF2/LAMINB or HO1/GAPDH. The data is depicted as means±SEM (n=3). Statistical analysis was performed with one-way ANOVA followed by the Bonferroni test to check inter-group differences. *p<0.05; ***p<0.001 vs. 0. D), representative immunoblots of NRF2, HO1, KEAP1, LAMINB, and GAPDH as loading controls. E) and F), Densitometric analysis of NRF2 and HO1 protein levels of the representative immunoblots of (D), expressed as a ratio of NRF2/LAMINB or HO1/GAPDH. The data is depicted as means±SEM (n=3). Statistical analysis was performed with one-way ANOVA followed by the Bonferroni test to check inter-group differences. *p<0.05; ***p<0.001 vs. 0. G), Reporter MCF-7 c32 ARE-luc cells were subjected to 1 μM, 3 μM, or 9 μM of PHAR and 10 μM of SFN as a positive control. 0.1% DMSO was used as a vehicle. Luciferase activity was measured after 16 h of treatment. The data is depicted as means±SEM (n=3). Statistical analysis was performed with one-way ANOVA followed by the Bonferroni test to check inter-group differences. **p<0.01; ***p<0.001 vs. 0. H), MTT assay to evaluate cell viability/toxicity after treatments. I), Serum-deprived MEFs were subjected to 10 μM of PHAR. The mRNA levels of Hmox1, Nqo1, Aox1, Glc, and Gclm after 8 h of treatment were determined by means of pRT-PCR and normalized by means of average LaminB, Gapdh, and β-actin. The data is depicted as means±SEM (n=3). Statistical analysis was performed with the Student's T test. *p<0.05; **p<0.01 ***p<0.001 vs. 0.
In order to empirically determine if PHAR activates NRF2, mouse embryo fibroblasts (MEFs) were treated with several doses of the compound (1 μM, 3 μM, and […]) for 16 h and with 10 μM of sulforaphane (SFN), one of main electrophilic activators of NRF2, used as a positive control.
Moreover, a time course of NRF2 activation with PHAR (10 μM for 2, 4, and 8 h) or with SFN (10 μM, 8 h) was done as a positive control.

[3] = tested on: transcriptional activity of NRF2; experiment: ARE luciferase reporter assay in MCF-7 c32 ARE-LUC cells; format: cell-based; details: 9 μM, 16 h
Experimental: as §1, with “G), Reporter MCF-7 c32 ARE-luc cells were subjected to 1 μM, 3 μM, or 9 μM of PHAR and 10 μM of SFN as a positive control. 0.1% DMSO was used as a vehicle.” left out, “The data is depicted as means±SEM (n=3). Statistical analysis was performed with one-way ANOVA followed by the Bonferroni test to check inter-group differences. **p<0.01; ***p<0.001 vs. 0. H), MTT assay to evaluate cell viability/toxicity after treatments. I), Serum-deprived MEFs were subjected to 10 μM of PHAR.” left out, “The data is depicted as means±SEM (n=3). Statistical analysis was performed with the Student's T test. *p<0.05; **p<0.01 ***p<0.001 vs. 0.” left out

`C[S+]([O-])CCCCN=C=S` (stereo not shown) [SFN, sulforaphane, reference compound] was tested, and the “liver NRF2 levels” value [1] was “accumulation caused by SFN”, the NRF2 accumulation ([2]; 16 h, PHAR 1, 3, 9 μM) was “accumulation induced by SFN” and the “NRF2 accumulation, time course” value ([2]; PHAR 10 μM for 2, 4, 8 h, 8 h) was “induction generated by SFN”. For the same compound, the “increase in luciferase activity” value [3] was “similar”.
